PubChem BioAssay AID2060600 (Molecular Pharmacology Branch, DTP, NCI, 2025)

System: 996289-038-R-J1-PDC complex spheroid viability
Assay: Anticancer human tumor 996289-038-R-J1-PDC patient-derived colon adenocarcinoma cell line growth inhibition [CLK]
Settings: for IC50: curve of first compound; for viability, T/C: stronger effect = lower value
From the text: A high-throughput screen of multi-cell type tumor spheroids was designed to identify active combinations of […] and targeted small molecules. Complex spheroids include a stromal component modeled by human endothelial cells (HUVEC) and fibroblasts modeled by human mesenchymal stem cells (MSCs). The concentration ranges selected for each drug and investigational agent were based upon clinically achievable concentrations if the clinical Cmax of the agent was known.
Compounds. The drugs and investigational agents: cirtuvivint (SM08502; NSC835563), CC-671 (NSC850746), vemurafenib (NSC761431), tapotoclax (NSC804041), sotorasib (NSC818433), adagrasib (NSC831453), MRTX-1133 (NSC836407), BAY2416964 (NSC825713), copanlisib (NSC816437), inavolisib (NSC800729), abemaciclib (NSC768073), osimertinib (NSC779217), entinostat (NSC756642), eltanexor (KPT-8602, NSC794443), venetoclax (NSC766270), ceralasertib (NSC777638), bortezomib (NSC756655), olaparib (NSC753686), talazoparib (NSC767125), alisertib (NSC759677), peposertib (NSC802822), gemcitabine (NSC613327), 5-fluorouracil (NSC19893), SN-38 (NSC673596), oxaliplatin (NSC266046), paclitaxel (NSC125973), and doxorubicin (NSC123127), were obtained from the National Cancer Institute (NCI) Developmental Therapeutics Program Chemical Repository. The FDA-approved anticancer drug set is available from the Developmental Therapeutics Program at https://dtp.cancer.gov/organization/dscb/obtaining/available plates.htm. […] The stock solutions were prepared in dimethyl sulfoxide (DMSO, Sigma-Aldrich, St. Louis, MO, cat. D2650), except for the platinum complexes which were prepared in saline (Quality Biological, Gaithersburg, MD, cat. 114-055-101), at 800-fold the tested concentration and stored at -70 degrees C prior to their use. All drugs and investigational agents were tested over a range starting from a high concentration at or near the clinical Cmax and decreasing in half-log increments. If the clinical Cmax for an agent had not been determined, the highest concentration tested was 10 microM.
Cell Culture. All cells were maintained in an incubator at 37 degrees C and 5% CO2 with 95% humidity. The PDC lines were cultured according to standard operating procedures established by the NCI PDMR. Briefly, all PDCs were thawed and cultured in Matrigel-coated flasks prepared with a working solution of 1X Ham's F-12 nutrient mix, without supplementation (Invitrogen, Waltham, MA, cat. 11765054), 100 U/mL penicillin-streptomycin (Invitrogen, cat. 15140122), and 2.5% Matrigel (Corning Inc., Corning, NY, cat. 354248) for the first three passages. The 947758-054-R-J2-PDC line was cultured in 6B/Colon 1A media, which includes advanced DMEM/F-12 (Thermo Fisher Scientific, cat. 12634028), 10 mM HEPES (Thermo Fisher Scientific, cat. 15630080), 1X GlutaMAX supplement (Thermo Fisher Scientific, cat. 35050061), 0.1 mg/mL primocin (InvivoGen, cat. ant-pm-2), 10% defined fetal bovine serum, heat inactivated (HyClone Laboratories Inc., cat. SH30070.03HI), 1.25 mM N-Acetyl-L-cysteine (Sigma-Aldrich, cat. A9165), 10 mM nicotinamide (Sigma-Aldrich, cat. N0636), 1X B-27 supplement (Thermo Fisher Scientific, cat. 17504044), 1X N-2 supplement (Thermo Fisher Scientific, cat. 17502048), and 10 microM Y-27632 dihydrochloride (Tocris Bioscience, cat. 1254). The 876862-298-R-J1-PDC was cultured in 6E media, which includes all 6B/Colon 1A media components plus 50% L-WRN conditioned media (ATCC, cat. CRL-3276), 50 ng/mL recombinant human EGF recombinant protein (hEGF; Thermo Fisher Scientific, cat. PHG0311), 10 ng/mL recombinant human fibroblast growth factor 10 (hGFG-10; PeproTech, cat. 100-26), 1 ng/mL recombinant human fibroblast growth factor 2 (hFGF-2; PeproTech, cat. 100-18B), and 1 µM prostaglandin E2 (PGE2; Tocris, cat. 2296). The 227483-062-R1-J1-PDC line was cultured in Panc media, containing all 6E components except hFGF-2, with the addition of 500 nM SB-431542 (Selleckchem, cat. S1067) and 10 nM gastrin (Tocris, cat. 3006). […]
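Further: spheroids exposed to the agents for 7 days before readout.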

## C=C(F)C(=O)N1CCN(c2nc(OCC3CCCN3C)nc3c2CCN(c2cccc4cccc(Cl)c24)C3)CC1CC#N (configuration not stated) + CN1CCN(c2cc(C(=O)Nc3cc4cc(-c5cnn(C)c5)ccc4cn3)ccn2)CC1
Second compound 0.0316 µM
  IC50: 4600 nM
Second compound 0.1 µM
  IC50: 4410 nM
Second compound 0.316 µM
  IC50: 2880 nM
Second compound 1 µM
  IC50: < 31.6 nM
Second compound 3.16 µM
  IC50: < 31.6 nM
Second compound 10 µM
  IC50: < 31.6 nM
Second compound 0.0316 µM, first compound 0.0316 µM
  viability, T/C: 98.2%
Second compound 0.0316 µM, first compound 0.1 µM
  viability, T/C: 119%
Second compound 0.0316 µM, first compound 0.316 µM
  viability, T/C: 97.9%
Second compound 0.0316 µM, first compound 1 µM
  viability, T/C: 104%
Second compound 0.0316 µM, first compound 3.16 µM
  viability, T/C: 73.4%
Second compound 0.0316 µM, first compound 10 µM
  viability, T/C: 1.4%
Second compound 0.1 µM, first compound 0.0316 µM
  viability, T/C: 97.1%
Second compound 0.1 µM, first compound 0.1 µM
  viability, T/C: 97.5%
Second compound 0.1 µM, first compound 0.316 µM
  viability, T/C: 101%
Second compound 0.1 µM, first compound 1 µM
  viability, T/C: 95.5%
Second compound 0.1 µM, first compound 3.16 µM
  viability, T/C: 70.1%
Second compound 0.1 µM, first compound 10 µM
  viability, T/C: 0.64%
Second compound 0.316 µM, first compound 0.0316 µM
  viability, T/C: 66.5%
Second compound 0.316 µM, first compound 0.1 µM
  viability, T/C: 79.6%
Second compound 0.316 µM, first compound 0.316 µM
  viability, T/C: 70.9%
Second compound 0.316 µM, first compound 1 µM
  viability, T/C: 64.8%
Second compound 0.316 µM, first compound 3.16 µM
  viability, T/C: 48.9%
Second compound 0.316 µM, first compound 10 µM
  viability, T/C: 0.51%
Second compound 1 µM, first compound 0.0316 µM
  viability, T/C: 6.67%
Second compound 1 µM, first compound 0.1 µM
  viability, T/C: 6.95%
Second compound 1 µM, first compound 0.316 µM
  viability, T/C: 6.76%
Second compound 1 µM, first compound 1 µM
  viability, T/C: 6.89%
Second compound 1 µM, first compound 3.16 µM
  viability, T/C: 1.53%
Second compound 1 µM, first compound 10 µM
  viability, T/C: 0.54%
Second compound 3.16 µM, first compound 0.0316 µM
  viability, T/C: 0.79%
Second compound 3.16 µM, first compound 0.1 µM
  viability, T/C: 0.78%
Second compound 3.16 µM, first compound 0.316 µM
  viability, T/C: 1.18%
Second compound 3.16 µM, first compound 1 µM
  viability, T/C: 0.87%
Second compound 3.16 µM, first compound 3.16 µM
  viability, T/C: 1.8%
Second compound 3.16 µM, first compound 10 µM
  viability, T/C: 0.29%
Second compound 10 µM, first compound 0.0316 µM
  viability, T/C: 0.4%
Second compound 10 µM, first compound 0.1 µM
  viability, T/C: 0.7%
Second compound 10 µM, first compound 0.316 µM
  viability, T/C: 1.4%
Second compound 10 µM, first compound 1 µM
  viability, T/C: 0.36%
Second compound 10 µM, first compound 3.16 µM
  viability, T/C: 0.43%
Second compound 10 µM, first compound 10 µM
  viability, T/C: 0.8%
